Key:
Format in all cases: cell-based
[1] = molecular target: T1, F876L mutant Androgen Receptor (AR-F876L) (Homo sapiens (Human), UniProt P10275, F877L); assay: LNCaP-AR-F876L ANT reporter assay (antagonist mode); conditions: for IC50: pIC50 = −Log10(IC50 in Molar), read-out: LNCaP-AR-F876L ANT pIC50 (converted); for Emax: read-out: LNCaP-AR-F876L ANT MAX % Inh
[2] = molecular target: T1, F876L mutant Androgen Receptor (AR-F876L); assay: LNCaP-AR-F876L AG reporter assay (agonist mode); conditions: for EC50: pEC50 = −Log10(EC50 in Molar), read-out: LNCaP-AR-F876L AG pEC50 (converted); for Emax: read-out: LNCaP-AR-F876L AG MAX % Stim
[3] = molecular target: T2, wild-type Androgen Receptor (AR-wt) (Homo sapiens (Human), UniProt P10275); assay: LNCaP-AR-wt ANT reporter assay (antagonist mode); conditions: for IC50: pIC50 = −Log10(IC50 in Molar), read-out: LNCaP-AR-wt ANT pIC50 (converted); for Emax: read-out: LNCaP-AR-wt ANT MAX % Inh
[4] = molecular target: T2, wild-type Androgen Receptor (AR-wt); assay: LNCaP-AR-wt AG reporter assay (agonist mode); conditions: for EC50: pEC50 = −Log10(EC50 in Molar), read-out: LNCaP-AR-wt AG pEC50 (converted); for Emax: read-out: LNCaP-AR-wt AG MAX % Stim
[5] = maximum % inhibition of R1881 control response over the tested concentration range
[6] = maximum % stimulation (agonist response) over the tested concentration range
[7] = antagonist mode, maximum % inhibition of R1881 control response over tested concentration range
[8] = agonist mode, maximum % stimulation over tested concentration range

T1 sequence (P10275 whole entry F877L): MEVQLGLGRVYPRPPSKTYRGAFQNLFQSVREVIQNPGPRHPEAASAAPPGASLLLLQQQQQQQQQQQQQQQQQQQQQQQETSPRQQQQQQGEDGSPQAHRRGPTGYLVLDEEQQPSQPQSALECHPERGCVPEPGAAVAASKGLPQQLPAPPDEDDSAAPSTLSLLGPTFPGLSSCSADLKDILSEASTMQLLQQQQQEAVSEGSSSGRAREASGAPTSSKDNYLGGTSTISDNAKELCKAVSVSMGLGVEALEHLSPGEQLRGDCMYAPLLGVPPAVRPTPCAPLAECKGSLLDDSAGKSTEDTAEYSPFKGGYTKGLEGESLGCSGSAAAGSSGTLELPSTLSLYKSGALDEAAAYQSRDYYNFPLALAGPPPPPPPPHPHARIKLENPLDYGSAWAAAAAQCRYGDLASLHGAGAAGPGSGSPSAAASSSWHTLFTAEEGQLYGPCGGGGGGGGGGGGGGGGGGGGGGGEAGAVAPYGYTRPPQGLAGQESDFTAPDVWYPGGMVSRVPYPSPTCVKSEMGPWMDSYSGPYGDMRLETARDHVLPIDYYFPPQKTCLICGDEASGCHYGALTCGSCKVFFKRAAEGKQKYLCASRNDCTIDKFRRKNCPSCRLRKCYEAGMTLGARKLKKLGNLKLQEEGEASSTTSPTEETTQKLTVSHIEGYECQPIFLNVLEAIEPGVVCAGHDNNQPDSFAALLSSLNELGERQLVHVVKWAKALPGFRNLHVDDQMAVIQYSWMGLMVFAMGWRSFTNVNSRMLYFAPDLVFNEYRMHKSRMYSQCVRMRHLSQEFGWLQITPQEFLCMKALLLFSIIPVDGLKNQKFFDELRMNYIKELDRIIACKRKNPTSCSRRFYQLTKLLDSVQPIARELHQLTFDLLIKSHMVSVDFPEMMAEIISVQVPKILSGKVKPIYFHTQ
T2 sequence (P10275 whole entry): as the sequence (P10275 whole entry F877L) above, with L877F counted along it

IC50 ([1]; antagonist mode)	Emax [1, 5]	EC50 ([2]; agonist mode)	Emax [2, 6]	IC50 ([3]; antagonist mode)	Emax [3, 5]	EC50 ([4]; agonist mode)	Emax [4, 6]	Emax [1, 7]	Emax [2, 8]	Emax [3, 7]	Emax [4, 8]	Structure (SMILES)
288 nM	102%	> 15.1 µM	0%	832 nM	101%	> 15.1 µM	-0.2%					COc1cc(N2C(=O)C3(CCC3)N(c3ccc4c(cnn4CCO)c3)C2=S)cnc1C#N [Cpd 167, 5-[8-[1-(2-hydroxyethyl)indazol-5-yl]-5-oxo-7-thioxo-6,8-diazaspiro[3.4]octan-6-yl]-3-methoxy-pyridine-2-carbonitrile]
145 nM	99.3%	> 15.1 µM	0.8%	95.5 nM	101%	> 15.1 µM	0%					Cn1ncc2cc(N3C(=S)N(c4cnc(C#N)c(Cl)c4)C(=O)C34CCC4)ccc21 [Cpd 168, 3-chloro-5-[8-(1-methylindazol-5-yl)-5-oxo-7-thioxo-6,8-diazaspiro[3.4]octan-6-yl]pyridine-2-carbonitrile]
309 nM	102%	> 15.1 µM	0.1%	589 nM	101%	> 15.1 µM	0.2%					COCCn1ncc2cc(N3C(=S)N(c4cnc(C#N)c(C(F)(F)F)c4)C(=O)C34CCC4)ccc21 [Cpd 170, 5-[8-[1-(2-methoxyethyl)indazol-5-yl]-5-oxo-7-thioxo-6,8-diazaspiro[3.4]octan-6-yl]-3-(trifluoromethyl)pyridine-2-carbonitrile]
186 nM	100%	> 15.1 µM	0.1%	437 nM	100%	> 15.1 µM	0.4%					COCCn1ncc2cc(N3C(=S)N(c4cnc(C#N)c(OC)c4)C(=O)C34CCC4)ccc21 [Cpd 173, 3-methoxy-5-[8-[1-(2-methoxyethyl)indazol-5-yl]-5-oxo-7-thioxo-6,8-diazaspiro[3.4]octan-6-yl]pyridine-2-carbonitrile]
269 nM	101%	> 15.1 µM	0.1%	479 nM	104%	> 15.1 µM	0.3%					CN1CC2CC1CC2Oc1ccc(N2C(=S)N(c3cnc(C#N)c(C(F)(F)F)c3)C(=O)C23CCC3)cc1 [Cpd 176, (R,S)-5-[8-[4-[(2-methyl-2-azabicyclo[2.2.1]heptan-5-yl)oxy]phenyl]-5-oxo-7-thioxo-6,8-diazaspiro[3.4]octan-6-yl]-3-(trifluoromethyl)pyridine-2-carbonitrile]
457 nM	100%	> 15.1 µM	0.4%	525 nM	102%	> 15.1 µM	0.2%					CN1CC2CC1CC2Oc1ccc(N2C(=S)N(c3cnc(C#N)c(C(F)(F)F)c3)C(=O)C23CCC3)cn1 [Cpd 177, (R,S)-5-[8-[6-[(2-methyl-2-azabicyclo[2.2.1]heptan-5-yl)oxy]-3-pyridyl]-5-oxo-7-thioxo-6,8-diazaspiro[3.4]octan-6-yl]-3-(trifluoromethyl)pyridine-2-carbonitrile]
468 nM	101%	> 15.1 µM	-0.2%	1230 nM	100%	> 15.1 µM	-0.2%					COCCn1cc2ccc(N3C(=S)N(c4cnc(C#N)c(C(F)(F)F)c4)C(=O)C34CCC4)cc2n1 [Cpd 179, 5-[8-[2-(2-methoxyethyl)indazol-6-yl]-5-oxo-7-thioxo-6,8-diazaspiro[3.4]octan-6-yl]-3-(trifluoromethyl)pyridine-2-carbonitrile]
191 nM	102%	> 15.1 µM	0.1%	550 nM	103%	> 15.1 µM	0%					N#Cc1ncc(N2C(=O)C3(CCC3)N(c3ccc4c(cnn4C4CCNCC4)c3)C2=S)cc1Cl [Cpd 182, 3-chloro-5-[5-oxo-8-[1-(4-piperidyl)indazol-5-yl]-7-thioxo-6,8-diazaspiro[3.4]octan-6-yl]pyridine-2-carbonitrile]
447 nM	99.6%	> 15.1 µM	0.4%	813 nM	100%	> 15.1 µM	0.2%					CN1CCC[C@H](CNC(=O)c2ccc(N3C(=S)N(c4cnc(C#N)c(C(F)(F)F)c4)C(=O)C34CCC4)cc2)C1 [Cpd 184, 4-[6-[6-cyano-5-(trifluoromethyl)-3-pyridyl]-5-oxo-7-thioxo-6,8-diazaspiro[3.4]octan-8-yl]-N-[[(3R)-1-methyl-3-piperidyl]methyl]benzamide]
427 nM		> 15.1 µM		708 nM		> 15.1 µM		102%	0.8%	102%	0.2%	CN1CCC[C@@H](CNC(=O)c2ccc(N3C(=S)N(c4cnc(C#N)c(C(F)(F)F)c4)C(=O)C34CCC4)cc2)C1 [Cpd 185, 4-[6-[6-cyano-5-(trifluoromethyl)-3-pyridyl]-5-oxo-7-thioxo-6,8-diazaspiro[3.4]octan-8-yl]-N-[[(3S)-1-methyl-3-piperidyl]methyl]benzamide]
2240 nM		> 15.1 µM		3160 nM		> 15.1 µM		100%	0%	99.8%	0.1%	N#Cc1ncc(N2C(=O)C3(CCC3)N(c3ccc(C(=O)NC[C@@H]4CCCNC4)cc3)C2=S)cc1C(F)(F)F [Cpd 186, 4-[6-[6-cyano-5-(trifluoromethyl)-3-pyridyl]-5-oxo-7-thioxo-6,8-diazaspiro[3.4]octan-8-yl]-N-[[(3R)-3-piperidyl]methyl]benzamide]
513 nM		> 15.1 µM		1260 nM		> 15.1 µM		101%	0.2%	101%	0.3%	CN1CC[C@@H](CNC(=O)c2ccc(N3C(=S)N(c4cnc(C#N)c(C(F)(F)F)c4)C(=O)C34CCC4)cc2)C1 [Cpd 187, 4-[6-[6-cyano-5-(trifluoromethyl)-3-pyridyl]-5-oxo-7-thioxo-6,8-diazaspiro[3.4]octan-8-yl]-N-[[(3S)-1-methylpyrrolidin-3-yl]methyl]benzamide]
1660 nM		> 15.1 µM		3020 nM		> 15.1 µM		97.4%	0.1%	95.3%	-0.1%	C[N@+]1([O-])CC[C@H](Oc2ccc(N3C(=S)N(c4cnc(C#N)c(C(F)(F)F)c4)C(=O)C34CCC4)cc2)CC1 [Cpd 190, 5-[8-[4-(1-methyl-1-oxido-piperidin-1-ium-4-yl)oxyphenyl]-5-oxo-7-thioxo-6,8-diazaspiro[3.4]octan-6-yl]-3-(trifluoromethyl)pyridine-2-carbonitrile]
692 nM		> 15.1 µM		1580 nM		> 15.1 µM		102%	0.1%	101%	0%	CN1CCC(NC(=O)c2ccc(N3C(=S)N(c4cnc(C#N)c(C(F)(F)F)c4)C(=O)C34CCC4)cc2)C1 (stereo not shown) [Cpd 192, 4-[6-[6-cyano-5-(trifluoromethyl)-3-pyridyl]-5-oxo-7-thioxo-6,8-diazaspiro[3.4]octan-8-yl]-N-(1-methylpyrrolidin-3-yl)benzamide]

Source: patent US10981926B2 (Janssen Pharmaceutica NV, priority 2016, dated 2021)
